In US10308660B2, “Compounds and compositions for inhibiting the activity of SHP2” (Novartis AG, priority 2015, dated 2019):
pIC50: −log10 of the molar value.

molecular target: SHP2 (Homo sapiens (Human), UniProt Q06124); test: SHP2 allosteric inhibition assay (DiFMUP prompt fluorescence); format: biochemical; conditions: 0.5 nM SHP2 activated with 0.5 μM peptide IRS1_pY1172(dPEG8)pY1222; substrate DiFMUP; 25° C.
Sequence (Q06124 whole entry): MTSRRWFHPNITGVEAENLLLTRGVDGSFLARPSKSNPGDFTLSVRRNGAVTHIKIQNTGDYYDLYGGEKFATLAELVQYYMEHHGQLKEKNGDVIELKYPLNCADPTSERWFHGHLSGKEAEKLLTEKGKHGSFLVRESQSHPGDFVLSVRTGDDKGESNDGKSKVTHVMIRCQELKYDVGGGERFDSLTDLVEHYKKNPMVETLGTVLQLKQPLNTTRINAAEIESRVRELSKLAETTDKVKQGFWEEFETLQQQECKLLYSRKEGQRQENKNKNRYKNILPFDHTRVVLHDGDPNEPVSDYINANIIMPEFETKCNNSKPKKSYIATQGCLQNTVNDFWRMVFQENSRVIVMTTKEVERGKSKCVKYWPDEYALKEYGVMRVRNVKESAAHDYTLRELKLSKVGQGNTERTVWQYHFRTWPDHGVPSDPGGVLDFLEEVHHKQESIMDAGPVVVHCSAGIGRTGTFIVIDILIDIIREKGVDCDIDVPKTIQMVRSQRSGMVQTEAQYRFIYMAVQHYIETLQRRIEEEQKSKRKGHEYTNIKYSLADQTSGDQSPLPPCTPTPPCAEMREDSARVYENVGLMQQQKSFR

Compound	pIC50
N[C@@H]1CCCC12CCN(c1ncc(Sc3cccnc3C(F)(F)F)c(=O)[nH]1)CC2 [Example 92]	7.04
CC1(CN)CCN(c2ncc(Sc3cccc(Cl)c3Cl)c(=O)[nH]2)CC1 [Example 93]	7.19
CC1(CN)CCN(c2ncc(Sc3ccccc3Cl)c(=O)[nH]2)CC1 [Example 94]	6.75
CCOc1nccc(Sc2cnc(N3CCC4(CC3)CO[C@@H](C)[C@H]4N)[nH]c2=O)c1Cl [Example 95]	7.64
C[C@@H]1OCC2(CCN(c3ncc(Sc4cccc(Cl)c4Cl)c(=O)[nH]3)CC2)[C@@H]1N [Example 97]	8.05
Cn1c(N2CCC(C)(CN)CC2)ncc(Sc2cccc(Cl)c2Cl)c1=O [Example 98, 2-(4-(aminomethyl)-4-methylpiperidin-1-yl)-5-((2,3-dichlorophenyl)thio)-3-methylpyrimidin-4(3H)-one]	7.17
Cn1c(N2CCC(C)(CN)CC2)ncc(Sc2ccccc2Cl)c1=O [Example 99]	6.43
Cn1c(N2CCC(C)(CN)CC2)ncc(Sc2cccnc2C(F)(F)F)c1=O [Example 100]	6.20
Cn1c(N2CCC3(CC2)COC[C@H]3N)ncc(Sc2cccc(Cl)c2Cl)c1=O [Example 101]	7.43
CCOc1nccc(Sc2cnc(N3CCC4(CC3)CO[C@@H](C)[C@H]4N)n(C)c2=O)c1Cl [Example 102]	8.00
C[C@@H]1OCC2(CCN(c3ncc(Sc4cccc(Cl)c4Cl)c(=O)n3C)CC2)[C@@H]1N [Example 103]	7.82
Cn1c(N2CCC3(CC[C@@H]3N)CC2)ncc(Sc2cccc(Cl)c2Cl)c1=O [Example 104]	6.96
COc1nccc(Sc2cnc(N3CCC4(CC3)CO[C@@H](C)[C@H]4N)n(C)c2=O)c1Cl [Example 105]	8.10
COc1cccc(Sc2cnc(N3CCC4(CC3)CO[C@@H](C)[C@H]4N)n(C)c2=O)c1Cl [Example 106]	7.52
C[C@@H]1OCC2(CCN(c3ncc(Sc4ccnc(NC5CC5)c4Cl)c(=O)n3C)CC2)[C@@H]1N [Example 107]	6.84
Cn1c(N2CCC(C)(CN)CC2)ncc(Sc2ccccc2C(F)(F)F)c1=O [Example 108]	6.30
Cn1c(N2CCC3(CCC[C@H]3N)CC2)ncc(Sc2cccc(Cl)c2Cl)c1=O [Example 109]	7.59
C[C@H]1C[C@@H](N)C2(CCN(c3ncc(Sc4cc(N)ncc4Cl)c(=O)n3C)CC2)C1 [Example 110]	7.80
C[C@@H]1OCC2(CCN(c3ncc(Sc4cc(N)nc(Cl)c4Cl)c(=O)n3C)CC2)[C@@H]1N [Example 112]	7.72
C[C@@H]1OCC2(CCN(c3ncc(Sc4ccnc(N)c4Cl)c(=O)n3C)CC2)[C@@H]1N [Example 113]	7.46
C[C@H]1C[C@@H](N)C2(CCN(c3ncc(Sc4cccnc4C(F)(F)F)c(=O)n3C)CC2)C1 [Example 114]	7.30
Cn1c(N2CCC(C)(CN)CC2)ncc(Sc2ccnc(Cl)c2Cl)c1=O [Example 115]	7.08
Cn1c(N2CCC(C)(CN)CC2)ccc(Sc2cccc(Cl)c2Cl)c1=O [Example 116, 6-(4-(aminomethyl)-4-methylpiperidin-1-yl)-3-((2,3-dichlorophenyl)thio)-1-methylpyridin-2(1H)-one]	5.79

Compound	pIC50
CC1(CN)CCN(c2ccc(Sc3cccc(Cl)c3Cl)c(=O)[nH]2)CC1 [Example 118, 6-(4-(aminomethyl)-4-methylpiperidin-1-yl)-3-((2,3-dichlorophenyl)thio)pyridin-2(1H)-one]	6.97
COc1nccc(Sc2ccc(N3CCC4(CC3)CO[C@@H](C)[C@H]4N)[nH]c2=O)c1Cl [Example 119]	7.08
C[C@@H]1OCC2(CCN(c3ccc(Sc4cccc(Cl)c4Cl)c(=O)[nH]3)CC2)[C@@H]1N [Example 120]	7.82
Cc1nc(N2CCC3(CC2)CO[C@@H](C)[C@H]3N)n(C)c(=O)c1Sc1ccnc(N)c1Cl [Example 121, 5-((2-amino-3-chloropyridin-4-yl)thio)-2-((3S,4S)-4-amino-3-methyl-2-oxa-8-azaspiro[4.5]decan-8-yl)-3,6-dimethylpyrimidin-4(3H)-one]	7.22
Cc1nc(N2CCC3(CC2)CO[C@@H](C)[C@H]3N)n(C)c(=O)c1Sc1cccnc1C(F)(F)F [Example 122]	7.17
Cc1ccc(-c2c(N)nc(N3CCC4(CC3)CO[C@@H](C)[C@H]4N)n(C)c2=O)cc1Cl [Example 123, 6-amino-2-((3S,4S)-4-amino-3-methyl-2-oxa-8-azaspiro[4.5]decan-8-yl)-5-(3-chloro-4-methylphenyl)-3-methylpyrimidin-4(3H)-one]	7.85
Cc1ccc(-c2c(N)nc(N3CCC4(CC3)C[C@@H](C)C[C@H]4N)n(C)c2=O)cc1Cl [Example 124]	8.00
C[C@H]1C[C@@H](N)C2(CCN(c3nc(N)c(-c4cccc(Cl)c4)c(=O)n3C)CC2)C1 [Example 125]	7.92
C[C@H]1C[C@@H](N)C2(CCN(c3nc(N)c(-c4cccc(F)c4F)c(=O)n3C)CC2)C1 [Example 126]	7.92
C[C@H]1C[C@@H](N)C2(CCN(c3nc(N)c(-c4ccc(F)c(F)c4)c(=O)n3C)CC2)C1 [Example 127]	7.85
C[C@H]1C[C@@H](N)C2(CCN(c3nc(N)c(-c4cccc(Cl)c4Cl)c(=O)n3C)CC2)C1 [Example 129]	7.85
C[C@@H]1OCC2(CCN(c3nc(N)c(-c4ccc(SC(F)(F)F)cc4)c(=O)n3C)CC2)[C@@H]1N [Example 130]	7.85
CC(C)c1ccc(-c2c(N)nc(N3CCC4(CC3)CO[C@@H](C)[C@H]4N)n(C)c2=O)cc1 [Example 131]	7.80
C[C@@H]1OCC2(CCN(c3nc(N)c(-c4cccc(Cl)c4Cl)c(=O)n3C)CC2)[C@@H]1N [Example 132]	7.80
C[C@@H]1OCC2(CCN(c3nc(N)c(-c4ccc(F)c(F)c4)c(=O)n3C)CC2)[C@@H]1N [Example 133]	7.77
C[C@H]1C[C@@H](N)C2(CCN(c3nc(N)c(-c4ccc(SC(F)(F)F)cc4)c(=O)n3C)CC2)C1 [Example 134]	7.72
C[C@@H]1OCC2(CCN(c3nc(N)c(-c4cccc(Cl)c4)c(=O)n3C)CC2)[C@@H]1N [Example 135]	7.72
C[C@@H]1OCC2(CCN(c3nc(N)c(-c4ccc(Cl)cc4)c(=O)n3C)CC2)[C@@H]1N [Example 136]	7.70
Cn1c(N2CCC3(CC2)CC(F)(F)C[C@H]3N)nc(N)c(-c2cccc(Cl)c2Cl)c1=O [Example 137]	7.66
C[C@@H]1OCC2(CCN(c3nc(N)c(-c4ccccc4)c(=O)n3C)CC2)[C@@H]1N [Example 138]	7.62
C[C@@H]1OCC2(CCN(c3nc(N)c(-c4ccc(OC5CC5)cc4)c(=O)n3C)CC2)[C@@H]1N [Example 139]	7.60
C[C@H]1C[C@@H](N)C2(CCN(c3nc(N)c(-c4ccccc4)c(=O)n3C)CC2)C1 [Example 140]	7.60
C[C@@H]1OCC2(CCN(c3nc(N)c(-c4ccc(Cl)c(F)c4)c(=O)n3C)CC2)[C@@H]1N [Example 141]	7.59

Compound	pIC50
C[C@@H]1OCC2(CCN(c3nc(N)c(-c4ccc(Oc5ccccc5)cc4)c(=O)n3C)CC2)[C@@H]1N [Example 142]	7.57
C[C@@H]1OCC2(CCN(c3nc(N)c(-c4cccc(F)c4F)c(=O)n3C)CC2)[C@@H]1N [Example 143]	7.55
CC[C@@H]1OCC2(CCN(c3nc(N)c(-c4ccccc4)c(=O)n3C)CC2)[C@@H]1N [Example 144]	7.47
C[C@@H]1OCC2(CCN(c3nc(N)c(-c4ccc(OC(F)F)cc4)c(=O)n3C)CC2)[C@@H]1N [Example 145]	7.47
C[C@@H]1OCC2(CCN(c3nc(N)c(-c4ccc(F)cc4)c(=O)n3C)CC2)[C@@H]1N [Example 146]	7.42
C[C@@H]1OCC2(CCN(c3nc(N)c(-c4ccc(OCC5CC5)cc4)c(=O)n3C)CC2)[C@@H]1N [Example 147]	7.41
Cn1c(N2CCC3(CC2)C[C@@H](C(F)(F)F)C[C@H]3N)nc(N)c(-c2cccc(Cl)c2Cl)c1=O [Example 148]	7.37
C[C@@H]1OCC2(CCN(c3nc(N)c(-c4ccc(OCc5ccccc5)cc4)c(=O)n3C)CC2)[C@@H]1N [Example 149]	7.37
Cn1c(N2CCC3(CC2)CC(F)(F)C[C@H]3N)nc(N)c(-c2ccccc2)c1=O [Example 150]	7.36
C[C@@H]1OCC2(CCN(c3nc(N)c(-c4cccc(F)c4)c(=O)n3C)CC2)[C@@H]1N [Example 151]	7.36
C[C@@H]1OCC2(CCN(c3nc(N)c(-c4ccccc4Cl)c(=O)n3C)CC2)[C@@H]1N [Example 152]	7.35
C[C@@H]1OCC2(CCN(c3nc(N)c(-c4ccccc4F)c(=O)n3C)CC2)[C@@H]1N [Example 153]	7.34
Cn1c(N2CCC3(CC2)C[C@H](F)C[C@H]3N)nc(N)c(-c2ccccc2)c1=O [Example 154]	7.34
Cn1c(N2CCC3(CC2)C[C@H](F)C[C@H]3N)nc(N)c(-c2cccc(Cl)c2Cl)c1=O [Example 155]	7.32
C[C@@H]1OCC2(CCN(c3nc(N)c(-c4ccc(F)cc4F)c(=O)n3C)CC2)[C@@H]1N [Example 156]	7.32
COc1ccc(-c2c(N)nc(N3CCC4(CC3)CO[C@@H](C)[C@H]4N)n(C)c2=O)cc1F [Example 157]	7.28
C[C@@H]1OCC2(CCN(c3nc(N)c(-c4ccc(F)c(Cl)c4)c(=O)n3C)CC2)[C@@H]1N [Example 158]	7.28
COc1ccc(-c2c(N)nc(N3CCC4(CC3)CO[C@@H](C)[C@H]4N)n(C)c2=O)cc1 [Example 159]	7.25
C[C@@H]1OCC2(CCN(c3nc(N)c(-c4ccc(C5CC5)cc4)c(=O)n3C)CC2)[C@@H]1N [Example 160]	7.20
Cn1c(N2CCC3(CC2)C[C@@H](C(F)(F)F)C[C@H]3N)nc(N)c(-c2ccccc2)c1=O [Example 161]	7.20
COc1ccc(-c2c(N)nc(N3CCC4(CC3)CO[C@@H](C)[C@H]4N)n(C)c2=O)cc1Cl [Example 162]	7.18
C[C@@H]1OCC2(CCN(c3nc(N)c(-c4ccc(C5CCCCC5)cc4)c(=O)n3C)CC2)[C@@H]1N [Example 163]	7.14
C[C@@H]1OCC2(CCN(c3nc(N)c(-c4cc(F)cc(F)c4)c(=O)n3C)CC2)[C@@H]1N [Example 164]	7.12
